Assays:
[1] = Solubility in water of compound 3 and its metal complexes; format: physicochemical
Text: (§1) The most variable compounds of the invention are 2 and 3, because of the easy substitution of the chloride in the —SO2Cl functions of 2 and the large variety of metal ions that can be inserted into either 2 or 3. In the present example, metallation of compound 3 is described. Generally, the same methods that were developed for corrole 1 worked for 3 as well: GaCl3/pyridine for obtaining compound 15, the gallium(III) complex of 3; Mn(OAc)2/DMF for obtaining compound 16, the manganese(III) complex of 3; Co(OAc)2/PPh3/EtOH for obtaining compound 17, the (triphenylphosphine)cobalt(III) complex of 3; SnCl2.2H2O/DMF for obtaining compound 18, the (chloro)tin(IV) complex of 3; and CrCl2/pyridine for obtaining compound 19, the (bis-pyridine)chromium(III) complex of 3.

[2] = Aggregation in solution judged from linear plots of UV-vis absorbance (ε determination); format: physicochemical; settings: low concentrations relevant for UV-vis measurements, 10^−4-10^−6 M
Text: as §1

Question: Which results are given for `O=S(=O)(O)C1=Cc2nc1c(-c1c(F)c(F)c(F)c(F)c1F)c1ccc([nH]1)c(-c1c(F)c(F)c(F)c(F)c1F)c1ccc([nH]1)c(-c1c(F)c(F)c(F)c(F)c1F)c1cc(S(=O)(=O)O)c2[nH]1` [Compound 3, 5,10,15-Tris(pentafluorophenyl)-2,17-bis(sulfonic acid)-corrole]?
Answer: solubility in water [1]: soluble in water; aggregation (linear plots obtained for elucidating the ε values) [2]: absence of aggregation
